Experimental data as given in US7205394B2, “Clathrate of azithromycin hydrate with 1,2-propyleneglycol, method for the manufacture thereof and pharmaceutical composition comprising same” (Hanmi Pharm. Co., Ltd., priority 2001, dated 2007).
Where two headings read alike, the source gives them in different places.

Key:
rat = conditions: oral administration in rat; cited from earlier work
[1] = prior art forms, background section, cited from earlier work
[2] = Hygroscopic properties: exposure to relative humidity, water content by Karl Fischer method; assay type: physicochemical; conditions: for Found-Calculated (Difference, %) / Range of Difference (%) / Water content, relative humidity 25% / Water content, relative humidity 50% / Water content, relative humidity 75% / Water content, relative humidity 100%: 7 days; for Found-Calculated (Difference, %) / Range of Difference (%): relative humidity 25-100%; for Found-Calculated (Difference, %) (number in parenthesis) / Range of Difference (%) (number in parenthesis): after 3 days at the corresponding relative humidity; for Water content at onset: before exposure, 7-day series; for Water content at onset / Water content, relative humidity 25% / Water content, relative humidity 50% / Water content, relative humidity 75% / Water content, relative humidity 100%: Karl Fischer; for Water content at onset (number in parenthesis): parenthesis = 3-day series; for Water content, relative humidity 50% (number in parenthesis) / Water content, relative humidity 75% (number in parenthesis) / Water content, relative humidity 100% (number in parenthesis) / Water content, relative humidity 25% (33%) (number in parenthesis): after 3 days; for Water content, relative humidity 25% (33%) (number in parenthesis): relative humidity (33%); for Calculated water content (%): theoretical, for (1) based on m = 1.5 and n = 0.30 in formula (I)
Method: Also, the hygroscopic properties of each of the compound obtained in Example 1 (1), azithromycin dihydrate (2), monohydrate (3), and anhydride (4) were determined by exposing each sample to a relative humidity of each 25%, 50%, […] thereof by the Karl Fischer method.

**Q.** Which LD50 (rat) does the source give for `CC(O)CO` (centres unmarked) [1,2-propyleneglycol] here?
**A.** Its LD50 is 25 mL/kg.

**Q.** With `CC[C@H]1OC(=O)[C@H](C)[C@@H](O[C@H]2C[C@@](C)(OC)[C@@H](O)[C@H](C)O2)[C@H](C)[C@@H](O[C@@H]2O[C@H](C)C[C@H](N(C)C)[C@H]2O)[C@](C)(O)C[C@@H](C)CN(C)[C@H](C)[C@@H](O)[C@]1(C)O` [(2), azithromycin dihydrate] as the compound, how does the “Hygroscopic property (in words)” value ([1]; dihydrate) read?
**A.** The value was “less hydroscopic than the monohydrate”.

**Q.** And the “Found-Calculated (Difference, %)” value ([2]; dihydrate)?
**A.** The value was −0.4~+1.51%.

**Q.** And the “Range of Difference (%)” value ([2]; dihydrate)?
**A.** Its value is 1.91%.

**Q.** And the “Found-Calculated (Difference, %) (number in parenthesis)” value ([2]; dihydrate)?
**A.** The value was “(−2.1~+0.6) %”.

**Q.** And the “Range of Difference (%) (number in parenthesis)” value ([2]; dihydrate)?
**A.** The value was 2.7%.

**Q.** What about the “Water content at onset” value ([2]; dihydrate) of the same compound?
**A.** Its value is 4.58%.

**Q.** What about the “Water content at onset (number in parenthesis)” value ([2]; dihydrate) of the same compound?
**A.** The value was 4.1%.

**Q.** And the “Water content, relative humidity 25%” value ([2]; dihydrate)?
**A.** Its value is 4.20%.

**Q.** And the “Water content, relative humidity 50%” value ([2]; dihydrate)?
**A.** The value was 4.25%.

**Q.** And the “Water content, relative humidity 50% (number in parenthesis)” value ([2]; dihydrate)?
**A.** Its value is 4.6%.

**Q.** What about the “Water content, relative humidity 75%” value ([2]; dihydrate) of the same compound?
**A.** Its value is 5.10%.

**Q.** What about the “Water content, relative humidity 75% (number in parenthesis)” value ([2]; dihydrate) of the same compound?
**A.** The value was 4.6%.

**Q.** What about the “Water content, relative humidity 100%” value ([2]; dihydrate) of the same compound?
**A.** The value was 6.11%.

**Q.** And the “Water content, relative humidity 100% (number in parenthesis)” value ([2]; dihydrate)?
**A.** The value was 5.2%.

**Q.** What about the “Water content, relative humidity 25% (33%) (number in parenthesis)” value ([2]; dihydrate) of the same compound?
**A.** Its value is 2.5%.

**Q.** And the “Calculated water content (%)” value ([2]; dihydrate)?
**A.** The value was 4.60%.

**Q.** What does the source list for `CC[C@H]1OC(=O)[C@H](C)[C@@H](O[C@H]2C[C@@](C)(OC)[C@@H](O)[C@H](C)O2)[C@H](C)[C@@H](O[C@@H]2O[C@H](C)C[C@H](N(C)C)[C@H]2O)[C@](C)(O)C[C@@H](C)CN(C)[C@H](C)[C@@H](O)[C@]1(C)O` [(3), azithromycin monohydrate]?
**A.** Found-Calculated (Difference, %) ([2]; monohydrate): +1~+3.94%; Range of Difference (%) ([2]; monohydrate): 3.94%; Found-Calculated (Difference, %) (number in parenthesis) ([2]; monohydrate): (−0.05~+4.84) %; Range of Difference (%) (number in parenthesis) ([2]; monohydrate): 4.9%; Water content at onset ([2]; monohydrate): 2.30%; Water content at onset (number in parenthesis) ([2]; monohydrate): 3.2%; Water content, relative humidity 25% ([2]; monohydrate): 3.35%; Water content, relative humidity 50% ([2]; monohydrate): 5.13%; Water content, relative humidity 50% (number in parenthesis) ([2]; monohydrate): 5.6%; Water content, relative humidity 75% ([2]; monohydrate): 5.41%; Water content, relative humidity 75% (number in parenthesis) ([2]; monohydrate): 6.6%; Water content, relative humidity 100% ([2]; monohydrate): 6.29%; Water content, relative humidity 100% (number in parenthesis) ([2]; monohydrate): 7.2%; Water content, relative humidity 25% (33%) (number in parenthesis) ([2]; monohydrate): 2.3%; Calculated water content (%) ([2]; monohydrate): 2.35%

**Q.** Which “Hygroscopic property (in words)” value [1] does the source give for `CC[C@H]1OC(=O)[C@H](C)[C@@H](O[C@H]2C[C@@](C)(OC)[C@@H](O)[C@H](C)O2)[C@H](C)[C@@H](O[C@@H]2O[C@H](C)C[C@H](N(C)C)[C@H]2O)C(C)(O)C[C@H](C)CN(C)[C@H](C)[C@@H](O)[C@]1(C)O` (some centres unmarked) [(4), 9-deoxo-9a-aza-9a-methyl-9a-homoerythromycin A] here?
**A.** Its value is “highly hygroscopic”.

**Q.** And the “Found-Calculated (Difference, %)” value [2]?
**A.** Its value is “+1.11~+7.00%”.

**Q.** And the “Range of Difference (%)” value [2]?
**A.** Its value is 7.00%.

**Q.** What about the “Water content at onset” value [2] of the same compound?
**A.** Its value is 0.22%.

**Q.** What about the “Water content, relative humidity 25%” value [2] of the same compound?
**A.** The value was 1.11%.

**Q.** What about the “Water content, relative humidity 50%” value [2] of the same compound?
**A.** Its value is 2.85%.

**Q.** And the “Water content, relative humidity 75%” value [2]?
**A.** The value was 4.33%.

**Q.** What about the “Water content, relative humidity 100%” value [2] of the same compound?
**A.** The value was 7.00%.

**Q.** And the “Calculated water content (%)” value [2]?
**A.** Its value is 0.00%.
